Test results published in paper PMC11846289, “New tetrahydroisoquinolines bearing nitrophenyl group targeting HSP90 and RET enzymes: synthesis, characterization and biological evaluation” (BMC Chemistry, 2025).
≈ marks a conversion by molar mass, not a printed value. Entries after “also recorded” stand apart in the source; their conditions may differ.

Experiments:
HEPG2 cells [1] = experiment: Annexin V-FITC/PI apoptosis assay; format: cell-based, human
Protocol: Showing a marked rise in overall apoptosis relative to the untreated control. […] HEPG2 cell death increases by 59 times following treatment with compounds 3. Therefore compound 3 has a biological mechanism that inhibits the proliferation of HEPG2 cells and has cytotoxic effects against cancer.
The Annexin-V FITC apoptosis assay of compounds 3 against HEPG2 was performed according to (BioVision Research Products (code k101-25). (www.biovision.com).

[2] = tested on: H460 (human lung carcinoma); experiment: one spot 100 µg/ml cytotoxicity, H460; format: cell-based; details: for inhibition at 100 µg/mL: Homo sapiens, NCI-H460, percent inhibition, read-out: one spot concentration inhibition, H460
MCF7 cell line = experiment: MTT in vitro cytotoxicity, MCF7; format: cell-based, human; details: for Selectivity Index = IC50 of HSF/ IC50 of MCF7: HSF vs MCF7; for IC50: Homo sapiens, read-out: IC50 for MCF7 ± S.D
Protocol: (§1) Using the MTT test method, the in vitro cytotoxicity of our synthesized compounds at different doses ranging from […] was examined in two cell lines, HEPG2 and MCF7, to examine 50% of the cancer cells dying.
(§2) Some of the synthesized compounds were tested as anticancer activity for the IC50 against two cell lines HEPG2 and MCF7 cells according to method. All cell lines were obtained from national cancer institute, Cairo—Egypt.

[3] = tested on: HUH7 (human liver carcinoma); experiment: one spot 100 µg/ml cytotoxicity, HUH7; format: cell-based; details: for inhibition at 100 µg/mL: Homo sapiens, Huh-7, percent inhibition, read-out: one spot concentration inhibition, HUH7
HSF = experiment: IC50 against normal cell line HSF; format: cell-based, human; details: normal skin cell line HSF; for IC50: Homo sapiens, read-out: IC50 FOR HSF ± S.D.
[4] = tested on: MCF7 (human breast carcinoma); experiment: one spot 100 µg/ml cytotoxicity, MCF7; format: cell-based; details: for inhibition at 100 µg/mL: Homo sapiens, MCF7, percent inhibition, read-out: one spot concentration inhibition, MCF7
HEPG2 cell line = experiment: MTT in vitro cytotoxicity, HEPG2; format: cell-based, human; details: for Selectivity Index = IC50 of HSF/IC50 of HEPG2: HSF vs HEPG2; for IC50: Homo sapiens, read-out: IC50 for HEPG2 ± S.D
Protocol: as §1, §2

[5] = tested on: HEPG2 (human liver carcinoma); experiment: one spot 100 µg/ml cytotoxicity, HEPG2; format: cell-based; details: for inhibition at 100 µg/mL: Homo sapiens, HepG2, percent inhibition, read-out: one spot concentration inhibition, HEPG2
[6] = tested on: HCT116 (colon carcinoma human); experiment: one spot 100 µg/ml cytotoxicity, HCT116; format: cell-based; details: for inhibition at 100 µg/mL: Homo sapiens, HCT-116, percent inhibition, read-out: one spot concentration inhibition, HCT116
[7] = tested on: normal human skin cell line (HSF); experiment: one spot 100 µg/ml cytotoxicity, normal skin cell line HSF; format: cell-based; details: for cytotoxicity at 100 µg/mL / inhibition at 100 µg/mL: Homo sapiens; for cytotoxicity at 100 µg/mL: HSF, read-out: Inhibition percent of HSF cell line; for inhibition at 100 µg/mL: read-out: one spot concentration inhibition, HSF
[8] = tested on: MG-63 (human osteosarcoma); experiment: one spot 100 µg/ml cytotoxicity, MG-63; format: cell-based; details: for inhibition at 100 µg/mL: Homo sapiens, MG-63, percent inhibition, read-out: one spot concentration inhibition, MG-63
[9] = tested on: CACO2 (colon carcinoma human); experiment: one spot 100 µg/ml cytotoxicity, CACO2; format: cell-based; details: for inhibition at 100 µg/mL: Homo sapiens, Caco-2, percent inhibition, read-out: one spot concentration inhibition, CACO2
HEPG2 cells [10] = experiment: Cell cycle analysis by DNA flow cytometry; format: cell-based, human
Description: After adding compound 3, we explore the growth inhibitory cell cycle mechanism of HEPG2 cell lines using DNA flow cytometry to examine the control and advancement of the cell cycle in HEPG2 cancer cells. […] When compound 3 was applied to HEPG2 cells, the cells cycled between the G0-G1 and G2/M phases (Fig. 4, Table 3). […] Compound 3 can also stop HEPG2 cells at the G0–G1% stage of the cell cycle, with an increase in the G0–G1phase fraction from 34.54 to 40.10.
The cell cycle arrests of compound 3 against HEPG2 was carried out according to Abcam method (code ab139418), (www.abcam.co.jp).

[11] = tested on: A549 (human lung carcinoma); experiment: one spot 100 µg/ml cytotoxicity, A549; format: cell-based; details: for inhibition at 100 µg/mL: Homo sapiens, A549, percent inhibition, read-out: one spot concentration inhibition, A549

CSc1nc(C)c2c(c1C#N)CC(C)(O)C(C(C)=O)C2c1cccc([N+](=O)[O-])c1 (stereo not drawn) [Compound 3, 7-Acetyl-4-cyano-1,6-dimethyl-6-hydroxy-3-methylthio-8-(3-nitrophenyl)−5,6,7,8-tetrahydroisoquinoline]
Apoptosis Early (HEPG2 cells [1]; HEPG2, control 0.2): 13.45%
Apoptosis Late (HEPG2 cells [1]; HEPG2, control 0.31): 16.78%
Necrosis (HEPG2 cells [1]; HEPG2, control 1.36): 2.96%
Apoptosis Total (HEPG2 cells [1]; HEPG2, control 1.87): 33.19%
fold increase in HEPG2 cell line apoptosis (HEPG2 cells [1]; relative to untreated control): 59 fold
inhibition at 100 µg/mL [2]: 62%
Selectivity Index = IC50 of HSF/ IC50 of MCF7 (MCF7 cell line): 2.9
IC50 (MCF7 cell line; MTT, MCF7): 33 ± 0.034 µg/mL (≈ 80.2 µM)
inhibition at 100 µg/mL [3]: 32.9%
IC50 (HSF): 96 µg/mL (≈ 233 µM)
inhibition at 100 µg/mL [4]: 71.5%
Selectivity Index = IC50 of HSF/IC50 of HEPG2 (HEPG2 cell line): 1.2
IC50 (HEPG2 cell line; MTT, HEPG2): 75 ± 0.063 µg/mL (≈ 182 µM)
inhibition at 100 µg/mL [5]: 67.7%
inhibition at 100 µg/mL [6]: 67.1%
cytotoxicity at 100 µg/mL ([7]; one spot 100 µg/ml): 52%
inhibition at 100 µg/mL ([7]; 100 µg/ml, supplement Table S1): 50.6%
inhibition at 100 µg/mL [8]: 44.3%
inhibition at 100 µg/mL [9]: 59.2%
cell cycle arrest phase (HEPG2 cells [10]; HEPG2): G2/M phase; also recorded: G0-G1, G2/M phases
%G2/M (HEPG2 cells [10]; HEPG2, 48 h at IC50 75 µg/ml, control 12.12): 25.67%
%S (HEPG2 cells [10]; HEPG2, 48 h at IC50 75 µg/ml, control 23.51): 22.10%
%G0–G1 (HEPG2 cells [10]; HEPG2, 48 h at IC50 75 µg/ml, control 34.54): 40.1%
inhibition at 100 µg/mL [11]: 50.6%

CC(=O)c1ccc(NC(=O)c2sc3nc(C)c4c(c3c2N)CC(C)(O)C(C(C)=O)C4c2cccc([N+](=O)[O-])c2)cc1 (stereo not drawn) [Compound 7a, 7-Acetyl-N-(4-acetylophenyl)−1-amino-5,8-dimethyl-8-hydroxy-6-(3-nitro-phenyl)−6,7,8,9-tetrahydrothieno[2,3-c]isoquinoline-2-carboxamide]
one spot concentration inhibition, H460 ([2]; percent inhibition): 59.87%
Selectivity Index = IC50 of HSF/ IC50 of MCF7 (MCF7 cell line): 1.8
IC50 for MCF7 ± S.D (MCF7 cell line; MTT, MCF7): 50 ± 0.031 µg/mL
one spot concentration inhibition, HUH7 ([3]; percent inhibition): 32.35%
IC50 FOR HSF ± S.D. (HSF): 90 µg/mL (≈ 157 µM)
one spot concentration inhibition, MCF7 ([4]; percent inhibition): 57.92%
Selectivity Index = IC50 of HSF/IC50 of HEPG2 (HEPG2 cell line): 0.92
IC50 for HEPG2 ± S.D (HEPG2 cell line; MTT, HEPG2): 97 ± 0.054 µg/mL
one spot concentration inhibition, HEPG2 ([5]; percent inhibition): 58.67%
one spot concentration inhibition, HCT116 ([6]; percent inhibition): 59.7%
one spot concentration inhibition, HSF ([7]; 100 µg/ml, supplement Table S1): 51.85%
Inhibition percent of HSF cell line ([7]; one spot 100 µg/ml): 55%
one spot concentration inhibition, MG-63 ([8]; percent inhibition): 50.44%
one spot concentration inhibition, CACO2 ([9]; percent inhibition): 58.2%
one spot concentration inhibition, A549 ([11]; percent inhibition): 46.81%

CC(=O)C1C(c2cccc([N+](=O)[O-])c2)c2c(C)nc(SCC(=O)Nc3cccc4ccccc34)c(C#N)c2CC1(C)O (stereo not drawn) [Compound 8a, 2-[(7-Acetyl-4-cyano-1,6-dimethyl-6-hydroxy-8-(3-nitrophenyl)−5,6,7,8-tetrahydro-isoquinolin-3-yl)thio]-N-(naphthalen-1-yl)acetamide]
inhibition at 100 µg/mL [2]: 59.6%
Selectivity Index = IC50 of HSF/ IC50 of MCF7 (MCF7 cell line): 1.6
IC50 (MCF7 cell line; MTT, MCF7): 50 ± 0.019 µg/mL (≈ 86.1 µM)
inhibition at 100 µg/mL [3]: 25.9%
IC50 (HSF): 84 µg/mL (≈ 145 µM)
inhibition at 100 µg/mL [4]: 72.4%
Selectivity Index = IC50 of HSF/IC50 of HEPG2 (HEPG2 cell line): 0.95
IC50 (HEPG2 cell line; MTT, HEPG2): 88 ± 0.072 µg/mL (≈ 152 µM)
inhibition at 100 µg/mL [5]: 60%
inhibition at 100 µg/mL [6]: 56.1%
cytotoxicity at 100 µg/mL ([7]; one spot 100 µg/ml): 59%
inhibition at 100 µg/mL ([7]; 100 µg/ml, supplement Table S1): 56.9%
inhibition at 100 µg/mL [8]: 38.5%
inhibition at 100 µg/mL [9]: 53.2%
inhibition at 100 µg/mL [11]: 46.2%
